From patent publication US11161912B2, “Heparanase-neutralizing monoclonal antibodies” (Technion Research & Development Foundation Limited, priority 2015, dated 2021)

Experiments:
[1] = tested on: E1-4 mouse lymphoma cells; assay: Subcutaneous E1-4 mouse lymphoma tumors; assay type: in vivo; details: E1-4 cells lacking heparanase activity
Experimental: (§1) Lymphoma cells were also inoculated subcutaneously at the right flank of 6-weeks-old NOD/SCID mice (human cell lines) or C57BL/6 mice (E1-4 mouse lymphoma cells) (n=7). Mice were treated with heparanase inhibitors (PG545; SST0001) or neutralizing antibodies and xenografts size was determined by externally measuring the tumors in 2 dimensions using a caliper. At the end of the experiment, mice were sacrificed; tumor xenografts were removed, weighed and fixed for histological and immunohistochemical analyses (Weissmann et al, 2016, Proc Natl Acad Sci USA 113:704-709). ESb mouse T-lymphoma cells (5×10^5) were similarly inoculated subcutaneously into SCID mice and spontaneous metastasis to the liver (Vlodaysky et al., 1983, Cancer Res 43:2704-2711) was examined after 3 weeks of treatment with PG545 or the neutralizing mAb, as described above. All animal experiments were approved by the Animal Care Committee of the Technion, Haifa, Israel.

[2] = tested on: Raji lymphoma cells; assay: Subcutaneous Raji lymphoma xenograft in NOD/SCID mice; assay type: in vivo, human
Experimental: (§2) Lymphoma cells were also inoculated subcutaneously at the right flank of 6-weeks-old NOD/SCID mice (human cell lines) or C57BL/6 mice (E1-4 mouse lymphoma cells) (n=7). Mice were treated with heparanase inhibitors (PG545; SST0001) or neutralizing antibodies and xenografts size was determined by externally measuring the tumors in 2 dimensions using a caliper. At the end of the experiment, mice were sacrificed; tumor xenografts were removed, weighed and fixed for histological and immunohistochemical analyses (Weissmann et al, 2016, Proc Natl Acad Sci USA 113:704-709). […]
(§3) A. Specimens of human follicular (FIG. 1A, left panel) and diffuse (FIG. 1A, right panel) B-cell lymphomas were subjected for immunostaining applying anti-heparanase antibody. […] Lysates of Raji cells and extracts of tumor xenografts produced by Raji cells were applied onto dishes coated with sulfate-labelled ECM and heparanase enzymatic activity was determined as described (Vlodaysky I, et al. 1999, Nature Med 5(7):793-802). […] Extracts of control (Con) and PG545-treated tumor xenografts produced by Raji cells were applied onto dishes coated with sulfate labelled ECM and heparanase activity was determined as above (lower panel).

[3] = tested on: ESb mouse T-lymphoma cells; assay: ESb T-lymphoma spontaneous liver metastasis and survival; assay type: in vivo; details: PG545 20 mg/kg once a week
Experimental: as §1
FIG. 3A. HEK 293 cells were incubated with latent 65 kDa (upper panel) or GS3 constitutively active heparanase (1 μg/ml; third panel) and the indicated mAbs (10 μg/ml). The cell medium was aspirated at the time designated and cell lysates were subjected to immunoblotting applying anti-heparanase antibody (upper and third panels). […] Heparanase-transfected 293 cells were grown with control mouse IgM or mAb 9E8 for two days. Cells were then fixed with methanol and subjected to immunofluorescent staining applying anti heparanase antibody (second panel) or lysed and subjected to immunoblotting applying anti-heparanase antibody (fourth panel). Purified recombinant active heparanase (200 ng) was pre-incubated with control mouse IgM ( ? ), mAb 8A5 ( ? ), mAb 9E8 ( ? ), all at 2 μg/ml, for 2 h in serum-free RPMI medium on ice. The mixture was then applied onto ^35S-labeled ECM-coated dishes and heparanase activity was determined as described above (lower panel). FIG. 3B, C. […] Quantification of the extent of CD45 staining is shown graphically in the lower panel. […]

[4] = tested on: human lymphoma cell lines; assay: Subcutaneous human lymphoma xenografts, dose response and treatment of palpable tumors (cell lines only 'indicated'); assay type: in vivo
Experimental: as §2, §3

[5] = tested on: Daudi lymphoma cells; assay: Subcutaneous Daudi lymphoma xenograft in NOD/SCID mice; assay type: in vivo, human; details: PG545 IP 20 mg/kg once weekly from one day after inoculation
Experimental: as §2, §3

[6] = tested on: Ramos lymphoma cells; assay: Subcutaneous Ramos lymphoma xenograft in NOD/SCID mice; assay type: in vivo, human; details: PG545 IP 20 mg/kg once weekly from one day after inoculation
Experimental: as §2, §3

[7] = tested on: SU-DHL-6 lymphoma cells; assay: Subcutaneous SU-DHL-6 lymphoma xenograft in mice; assay type: in vivo, human; details: SU-DHL-6, PG545 IP 20 mg/kg once weekly from one day after inoculation
Experimental: The indicated lymphoma cells (5×10^6) were implanted subcutaneously in NOD/SCID mice (n=7) and mice were administered with PG545 (IP, 20 mg/kg, once weekly, starting one day after cell inoculation), or control vehicle (PBS; Con). At termination, tumors were removed, weighted and embedded in paraffin for histological and immunohistochemical analyses. Mice were similarly inoculated with the indicated lymphoma cells and were treated with the indicated concentration of PG545 (mg/kg once a week; FIG. 1C) or were treated with PG545 (20 mg/kg once a week) once the tumors became palpable (FIG. 1D). Shown are average (±SE) tumor weight (gr.).

[8] = tested on: Raji-luciferase cells; assay: Raji-luciferase lymphoma, tail vein inoculation, bone marrow growth by IVIS imaging; assay type: in vivo, human; details: PG545 20 mg/kg once a week
Experimental: Tumorigenicity. Luciferase-labelled CAG myeloma (5×10^6) or Raji lymphoma (1×10^6) cells were injected into the tail vein of NOD/SCID mice (n=5). Mice were treated with PG545 (20 mg/kg, once weekly), mAb 9E8 (600 μg/mouse) every other day starting one day following cell inoculation and tumor growth was examined by IVIS imaging. At termination, mice were sacrificed, the backbones were excised, fixed in formalin and following de-calcification with 10% EDTA solution were embedded in paraffin and subjected to histological and immunohistochemical analyses essentially as described (Weissmann et al, 2016, Proc Natl Acad Sci USA 113:704-709). Dose of 25-30 mg/kg (i.e., 500-600 μg mAb/mouse) is typical in cancer restraining experiments (Van Looy T, et al. 2015, Transl Oncol 8(2):112-118).
IVIS imaging. Bioluminescent imaging of the luciferase-expressing tumors was performed with a highly sensitive, cooled charge coupled device (CCD) camera mounted in a light-tight specimen box (IVIS; Xenogen Corp., Waltham, Mass.). Briefly, mice were injected intraperitoneally with D-luciferin substrate at 150 mg/kg, anesthetized and placed onto a stage inside the light-tight camera box, with continuous exposure to isoflurane (EZAnesthesia, Palmer, Pa.). Light emitted from the bioluminescent cells was detected by the IVIS camera system with images quantified for tumor burden using a log-scale color range set at 5×10^4 to 1×10^7 and measurement of total photon counts per second (PPS) using Living Image software (Xenogen) (Weissmann et al, 2016, Proc Natl Acad Sci USA 113:704-709).
FIG. 4A. Raji-luciferase cells (1×10^6) were injected into the tail vein of NOD/SCID mice (n=5). Mice were treated with PG545 (20 mg/kg once a week) starting one day after cell inoculation and IVIS imaging was applied to quantify tumor load. […] NOD/SCID mice (n=5) were inoculated (iv) with Raji-luciferase cells and mice were treated with mAb 9E8 (600 μg/mouse every other day) (FIG. 4C) and tumor growth was evaluated by IVIS imaging (left panels). Quantification of luciferase signals is shown graphically in the right lower panel.

[9] = tested on: OCI-LY-19 lymphoma cells; assay: Subcutaneous OCI-LY-19 lymphoma xenograft in NOD/SCID mice; assay type: in vivo, human; details: OCI-LY-19, PG545 IP 20 mg/kg once weekly from one day after inoculation
Experimental: as §2, §3

[10] = target: T1, heparanase (Homo sapiens, UniProt Q9Y251); details: prior art; cited from earlier work
T1 sequence (Q9Y251 36-543): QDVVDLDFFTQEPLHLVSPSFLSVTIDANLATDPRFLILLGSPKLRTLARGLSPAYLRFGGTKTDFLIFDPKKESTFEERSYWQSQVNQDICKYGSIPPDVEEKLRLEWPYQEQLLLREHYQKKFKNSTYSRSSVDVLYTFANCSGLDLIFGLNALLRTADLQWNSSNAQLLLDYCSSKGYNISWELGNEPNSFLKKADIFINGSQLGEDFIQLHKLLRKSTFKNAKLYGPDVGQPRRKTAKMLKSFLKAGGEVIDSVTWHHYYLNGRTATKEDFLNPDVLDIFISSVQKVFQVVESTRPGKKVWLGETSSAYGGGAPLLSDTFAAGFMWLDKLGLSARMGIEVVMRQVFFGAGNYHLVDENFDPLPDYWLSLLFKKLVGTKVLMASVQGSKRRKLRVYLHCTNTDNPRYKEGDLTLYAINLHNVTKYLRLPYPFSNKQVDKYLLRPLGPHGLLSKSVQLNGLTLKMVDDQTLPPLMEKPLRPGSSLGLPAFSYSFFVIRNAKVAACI

[11] = prior art; cited from earlier work

Row | Compound | growth of tumor xenografts [1] | growth of tumor xenografts (tumor weight) ([2]; Raji, PG545 IP 20 mg/kg once weekly from one day after inoculation) | heparanase activity in tumor xenograft extracts ([2]; extracts of Raji xenografts on sulfate labelled ECM) | survival of mice ([3]; ESb s.c. in NOD/SCID mice) | liver metastasis ([3]; ESb) | inhibition of tumor xenograft growth when treated once lesions became palpable ([4]; PG545 20 mg/kg once a week (FIG. 1D)) | dose dependence of xenograft growth attenuation ([4]; indicated concentrations mg/kg once a week (FIG. 1C)) | growth of tumor xenografts (tumor weight) [5] | growth of tumor xenografts (tumor weight) [6] | growth of tumor xenografts (tumor weight) [7] | blood vessel density (CD31) in bone marrow [8] | expansion of Raji-luciferase cells in the bone marrow ([8]; IVIS) | growth of tumor xenografts (tumor weight) [9] | inhibition of heparanase activity [10] | interaction with heparin and HS [11]
1 | CC(C)CCC[C@@H](C)[C@H]1CC[C@H]2[C@@H]3CC[C@H]4C[C@@H](O[C@@H]5O[C@H](COS(=O)(=O)O)[C@@H](O[C@H]6O[C@H](COS(=O)(=O)O)[C@@H](O[C@H]7O[C@H](COS(=O)(=O)O)[C@@H](O[C@H]8O[C@H](COS(=O)(=O)O)[C@@H](OS(=O)(=O)O)[C@H](OS(=O)(=O)O)[C@H]8OS(=O)(=O)O)[C@H](OS(=O)(=O)O)[C@H]7OS(=O)(=O)O)[C@H](OS(=O)(=O)O)[C@H]6OS(=O)(=O)O)[C@H](OS(=O)(=O)O)[C@H]5OS(=O)(=O)O)CC[C@]4(C)[C@H]3CC[C@]12C [PG545] | not inhibited | markedly attenuated | inhibits heparanase activity | prolonged | reduced liver metastasis | significant inhibition | dose-dependent manner | markedly attenuated | markedly attenuated | markedly attenuated | decreased blood vessel density | markedly reduced | markedly attenuated |  | 
2 | KKFKNSTYSRSSVD [KKDC] |  |  |  |  |  |  |  |  |  |  |  |  |  | inhibits heparanase enzymatic activity | high affinity
